# Source: PMC3441706 (PLoS ONE, 2012)
# Key:
# HepG2 cells = assay: Clonogenic assay; type: cell-based, human; settings: HepG2, 12 days incubation
# Protocol: (§1) For clonogenic assays, HT-29 and HepG2 cells were plated in 60 mm dishes at a density of 1000 cells per dish. After 24 hours NVX-412 was added at the indicated concentrations. After cultivation for 12–14 days (when assessable colonies were visible), colonies were fixed in 70% ethanol, stained with 0.5% Crystal Violet and counted manually.
# HT-29 cells [1] = assay: Clonogenic assay; type: cell-based, human; settings: HT-29, 14 days incubation
# Protocol: as §1
# HCT116 cells [2] = assay: Morphology assay / quantification of cell sizes; type: cell-based, human; settings: HCT116, 48 hours treatment, 0.15 and 1 µM
# Protocol: (§2) To investigate potential morphological changes upon treatment with NVX-412, HCT116, HeLa and HT-29 cells were plated in 6-well plates and incubated for up to 72 hours with the indicated concentrations of NVX-412, DMSO as vehicle control and 1 µM Camptothecin (CPT) as a positive control for apoptotic morphology. Control experiments were carried out to ensure that morphological changes are not due to differences in confluency. After 24, 48 and 72 hours pictures were taken with an Olympus IX71 inverted microscope and camera system (Olympus Color View III) at 20× magnification.
# (§3) Cell sizes were quantified using specialized imaging software (ImageJ 1.45d, US NIH, Bethesda, MD, USA). Average areas of all cells present within 5 different fields of view per sample were determined after 48 hours treatment with 0, 0.15 and 1 µM NVX-412.
# HT-29 cells [3] = assay: Morphology assay / quantification of cell sizes; type: cell-based, human; settings: HT-29, 48 hours treatment
# Protocol: as §2, §3
# HeLa cells [4] = assay: Morphology assay / quantification of cell sizes; type: cell-based, human; settings: 48 hours treatment
# Protocol: as §2, §3
# HCT116 cells [5] = assay: Flow cytometric cell cycle analysis; type: cell-based, human; settings: HCT116, 24 hours, IC50 concentration, 0.5 and 1 µM
# Protocol: (§4) HT-29, HeLa and HCT116 cells were plated in 6-well plates. […] CPT was used at 50 nM and 1 µM. To analyze the cell cycle distribution, cells were collected after 24 hours of incubation and washed with PBS. Cells were fixed in 70% ethanol for at least 2 hours. For analysis, cells were transferred into PBS, incubated with RNAse A (0.04 µg/ml final concentration) for 30 minutes at 37°C, treated with […] propidium iodide for 30 min at 4°C and then analyzed by flow cytometry using BD FACScan (Becton, Dickinson and Company, Franklin Lakes, NJ, USA). The resulting DNA histograms were quantified using ModFit LT (Verity Software House, Topsham, ME, USA).
# HT-29 cells [6] = assay: Flow cytometric cell cycle analysis; type: cell-based, human; settings: HT-29, 24 hours, IC50 concentration, 0.5 and 1 µM
# Protocol: as §4
# HeLa cells [7] = assay: Flow cytometric cell cycle analysis; type: cell-based, human; settings: 24 hours, IC50 concentration, 0.5 and 1 µM
# Protocol: as §4
# HT-29 = assay: Cytotoxicity assay (cell counting); type: cell-based, Human
# Protocol: Cells were plated in 24-well plates. After cells were allowed to recover for 24 hours, NVX-412 was added in fresh growth medium. The maximal DMSO concentration reached in all experiments was below 0.01%. Respective control experiments at the highest DMSO concentration were performed in order to rule out DMSO-induced effects. After 72 hours incubation the proportion of viable cells was determined by cell counting with a Z1 Coulter Particle Counter (Beckman Coulter, Vienna, AUT), a ViCell XR (Beckman Coulter, Vienna, AUT) or a CASY® Cell Counter (Schärfe, Reutlingen, Germany). Cytotoxicity was expressed as IC50 values that were derived from the corresponding dose–response curves.
# [8] = tested on: 59 different human tumor cell lines; assay: NCI-60 DTP human tumor cell line screen, all cell lines combined; type: cell-based; settings: 48 h, all cancer types, 48 hours incubation
# Protocol: NVX-412 was included in an anti-cancer activity screen by the National Cancer Institute (NCI). The compound was tested against 59 different human tumor cell lines, representing leukemia, melanoma and cancers of the lung, colon, brain, ovary, breast, prostate, and kidney (for a complete list of cell lines please refer to Shoemaker et al. 2006 [5]). The methodology of this in vitro cancer screen is described in detail on the NCI website (http://dtp.nci.nih.gov/branches/btb/ivclsp.html). Briefly, the human tumor cell lines of the cancer screening panel were grown in RPMI 1640 medium containing 5% FCS and 2 mM L-glutamine in 96-well plates at densities ranging from 5,000 to 40,000 cells/well. After 24 hours the experimental drug was added at 5 concentrations plus control and cells were incubated for additional 48 hours. For determination of the growth-inhibitory effect of the compound a sulphorhodamine B assay was performed that employs a chemical fixation step at the end of drug treatment and a subsequent staining for 10 minutes. After a washing step, absorbance was determined at 515 nm. […]
# p-p53 (Ser15) = assay: Immunofluorescence staining of p-p53 (Ser15) in HCT116 cells; type: cell-based, human; settings: HCT116, 24 hours
# Protocol: HCT116 and HeLa cells were seeded on glass cover slips in 6-well plates. 24 hours after plating, HCT116 cells were incubated with 0.15, 0.5 and 1 µM NVX-412 and 1 µM CPT for 24 hours for staining of p-p53. For investigating γH2AX, HeLa cells were incubated with 0.21, 0.5 and 1 µM NVX-412 and 1 µM CPT for 3 or 24 hours. Additionally, cells were allowed to recover for 24 hours in normal growth medium after 24 hours of incubation with NVX-412 or CPT (wash-out experiment). After the respective treatments, cells were washed and fixed with 4% methanol-free formaldehyde (Polysciences Inc. Warrington, PA, USA) for 15 minutes at room temperature and then permeabilized with 0.2% Triton X-100/PBS for 2 minutes at room temperature. After blocking with goat serum (5%) in 1% BSA/0.3% Triton X-100/PBS, the respective primary antibody was added and cells were incubated at 4°C overnight. Antibodies used were: mouse p-p53 (Ser15) (Cell Signaling Technology, Danvers, MA, USA) at 1∶100 dilution and mouse p-H2AX (Ser139) (Millipore, Billerica, MA, USA) at 1∶1000 dilution in 1% BSA/PBS, respectively. Cells were then washed 3 times for 10 minutes with 0.25% BSA/0.1% Triton X-100/PBS and incubated with the Alexa Fluor 488 conjugated secondary anti-mouse antibody (1∶1000 in 0.25% BSA/0.1% Triton X-100/PBS) for 1 hour at room temperature in the dark. Cells were washed 3 times for 10 minutes with 0.05% Tween-20/PBS containing Hoechst 33342 (Sigma Aldrich, Vienna, AUT) and mounted with mounting medium (Fluoprep, bioMérieux, Marcy l'Etoile, FRA). Fluorescence was immediately recorded on a Zeiss LSM700 laser scanning microscope.
smiles,measurement,setting,value
"O=C(NNc1nc2cc(F)ccc2n2cccc12)c1cnccn1 [NVX-412, Pyrazine-2-carboxylic acid N’- (7-fluoro-pyrrolo[1,2-α]quinoxalin-4-yl)-hydrazide-oxalic acid co-crystal]",Clonogenic survival,HepG2 cells,reduced the ability of HepG2 and HT-29 cells to form colonies in a dose-dependent manner
same,Clonogenic survival,HT-29 cells [1],reduced the ability of HepG2 and HT-29 cells to form colonies in a dose-dependent manner
same,Cell sizes,HCT116 cells [2],highly significant increase in cell sizes
same,Cell sizes,HT-29 cells [3],highly significant increase in cell sizes
same,Cell sizes,HeLa cells [4],highly significant increase in cell sizes
same,Cell cycle distribution,HCT116 cells [5],dose-dependent increase in the fraction of S-phase cells
same,Cell cycle distribution,HT-29 cells [6],dose-dependent increase in the fraction of S-phase cells
same,Cell cycle distribution,HeLa cells [7],dose-dependent increase in the fraction of S-phase cells
same,IC50 lower compared to the parental compound NVX-144,HT-29; HT-29 colon carcinoma cell line,3 to 4 fold
same,IC50,"HT-29; Homo sapiens, HT-29, colon adenocarcinoma, 72 hours incubation",300 nM
same,IC50,[8],~200 nM
same,p-p53 (Ser15) immunofluorescence staining,p-p53 (Ser15); 0.5 and 1 µM,positive staining
same,p-p53 (Ser15) immunofluorescence staining,p-p53 (Ser15); IC50 concentration,did not lead to p-p53 (Ser15) staining
